The record followed here is paper PMC7044277 (Nature Communications, 2020).

What all share (assay type): cell-based
Assay [1] deals with 320 non-olfactory GPCRs (Homo sapiens, UniProt P35414).
Assay [2] has as its target 320 non-olfactory GPCRs (Homo sapiens, UniProt P32238).
Assay [3] concerns the target T1, 320 non-olfactory GPCRs (Homo sapiens, UniProt Q9HB89).
T1 construct: expressed in transfected cells; host or cells: HTLA cells
As to conditions: receptor NMUR1; replicate values, Fig_4g.

The target in assay [4] is T2, 320 non-olfactory GPCRs (Homo sapiens, UniProt Q9BPV8).
T2 construct: expressed in transfected cells; host or cells: HTLA cells
T2 sequence (Q9BPV8 whole entry): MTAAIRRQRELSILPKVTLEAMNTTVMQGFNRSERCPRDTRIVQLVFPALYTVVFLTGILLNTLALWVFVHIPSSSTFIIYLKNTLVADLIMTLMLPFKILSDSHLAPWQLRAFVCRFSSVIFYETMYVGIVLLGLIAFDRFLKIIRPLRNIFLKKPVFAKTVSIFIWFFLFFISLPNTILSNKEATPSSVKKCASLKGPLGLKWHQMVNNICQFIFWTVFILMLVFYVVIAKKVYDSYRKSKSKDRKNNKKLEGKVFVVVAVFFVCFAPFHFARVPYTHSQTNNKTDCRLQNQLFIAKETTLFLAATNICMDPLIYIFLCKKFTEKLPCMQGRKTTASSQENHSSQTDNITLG
As to conditions: receptor P2RY13; replicate values, Fig_4g.

Values joined by “and” are separate entries in the source; they are usually repeats but may differ in a detail not shown here. Identical values can stand only once.
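Wherever Fold of Basal is given: compound tested at 1 µM final concentration.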
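Wherever GPCRome agonism screen response is given: fold over basal response of each receptor without drug.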

Sequence of 320 non-olfactory GPCRs (Homo sapiens, UniProt P35414) (P35414 whole entry): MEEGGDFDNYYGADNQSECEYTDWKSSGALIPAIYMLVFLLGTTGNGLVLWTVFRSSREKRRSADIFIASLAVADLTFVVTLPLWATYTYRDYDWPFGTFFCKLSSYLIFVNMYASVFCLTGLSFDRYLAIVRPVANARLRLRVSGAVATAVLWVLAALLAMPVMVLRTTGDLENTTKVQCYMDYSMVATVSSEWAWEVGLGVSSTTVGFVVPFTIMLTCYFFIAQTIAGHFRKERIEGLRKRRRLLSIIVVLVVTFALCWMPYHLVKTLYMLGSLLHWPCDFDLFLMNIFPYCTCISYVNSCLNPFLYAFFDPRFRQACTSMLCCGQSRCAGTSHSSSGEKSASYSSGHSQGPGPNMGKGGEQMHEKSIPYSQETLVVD
T1 sequence (Q9HB89 whole entry): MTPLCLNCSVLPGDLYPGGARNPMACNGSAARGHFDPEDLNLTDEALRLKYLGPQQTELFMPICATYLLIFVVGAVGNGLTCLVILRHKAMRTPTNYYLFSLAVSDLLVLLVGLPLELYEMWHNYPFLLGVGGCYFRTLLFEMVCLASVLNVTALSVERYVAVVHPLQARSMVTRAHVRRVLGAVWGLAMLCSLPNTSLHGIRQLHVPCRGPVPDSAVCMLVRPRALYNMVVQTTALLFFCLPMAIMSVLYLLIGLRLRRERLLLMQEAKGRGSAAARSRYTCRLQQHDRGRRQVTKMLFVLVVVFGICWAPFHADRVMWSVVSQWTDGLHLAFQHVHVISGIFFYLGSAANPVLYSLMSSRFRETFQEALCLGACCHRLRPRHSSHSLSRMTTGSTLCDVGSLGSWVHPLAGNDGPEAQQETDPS
Sequence of 320 non-olfactory GPCRs (Homo sapiens, UniProt P32238) (P32238 whole entry): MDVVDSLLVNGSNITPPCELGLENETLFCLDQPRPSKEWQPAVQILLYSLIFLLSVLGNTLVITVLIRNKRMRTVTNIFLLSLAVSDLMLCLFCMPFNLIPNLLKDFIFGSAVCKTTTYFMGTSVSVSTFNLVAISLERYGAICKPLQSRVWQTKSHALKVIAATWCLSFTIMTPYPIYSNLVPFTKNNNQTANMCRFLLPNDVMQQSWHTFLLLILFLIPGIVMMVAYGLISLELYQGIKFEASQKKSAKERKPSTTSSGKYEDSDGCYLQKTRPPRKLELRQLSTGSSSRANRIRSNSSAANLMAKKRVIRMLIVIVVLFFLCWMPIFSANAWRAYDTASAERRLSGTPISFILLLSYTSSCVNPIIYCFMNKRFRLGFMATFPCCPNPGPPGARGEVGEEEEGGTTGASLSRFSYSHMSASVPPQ

For `CCOc1cccc2cc(C(C)NCC3(O)CCCCC3)oc12` (stereo not shown) [O4LE6], the “Fold of Basal” value is 1.057 and 1.1216 and 0.9447 and 1.032 on 320 non-olfactory GPCRs [1]; 0.8879 and 0.8535 and 0.8133 and 1.029 on 320 non-olfactory GPCRs [2]. Moreover, the “GPCRome agonism screen response” value at 320 non-olfactory GPCRs [3] is 1.001 and 1.011 and 0.9191 and 1.865; on 320 non-olfactory GPCRs [4], 0.7893 and 1.044 and 0.6466 and 2.085.
